Measured values from patent US20150148551A1, “GENISTEIN FOR REDUCING LEVELS OF STORAGE COMPOUNDS IN THE TREATMENT AND/OR PREVENTION OF LYSOSOMAL STORAGE DISEASES (LSDS)” (3G THERAPEUTICS, INC., priority 2012, published 2015).

Experiments:
Type in all cases: cell-based, human
[1] = system: CHST14; assay: DNA microarray, CHST14 expression in fibroblasts exposed to genistein
Protocol: (§1) The experiments were conducted to characterise the transcriptomic profile of human fibroblast cells exposed to genistein, and in particular to determine the expression of genes encoding lysosomal enzymes involved in metabolism (i.e. synthesis and degradation) of organic substances. The absence or deficiency of these enzymes' activity is responsible for occurrence of various lysosomal storage diseases (LSD) (including MPS). The tested hypothesis assumed that genistein influences the expression of many genes, among which there are genes coding for enzymes required in metabolism of compounds, which are pathologically stored in LSD. The results provide important information regarding genistein action on the molecular level within the range of gene expression modulation by this substance. The experiment was conducted in biological quintuplicates. Human dermal fibroblasts (HDFa) were exposed in vitro for 1, 24 or 48 hours to: 30, 60 or 100 μM of genistein; 0.05% DMSO (K1); or were untreated (control cells) (K2), and total RNA was isolated and analysed.
(§2) Fibroblast cells were grown in Dulbecco (DMEM) medium supplemented with 10% fetal bovine serum (FBS) with the addition of 1% antibiotics and anti-fungal agents at 37° C. in humidified atmosphere of 5% CO2, until the required confluency was obtained.
(§3) To determine the effect of tested compound on the transcriptom of the fibroblast cells, the growth medium was replaced with fresh medium, either non-supplemented (0.05% DMSO), or containing genistein (30, 60 or 100 μM, in 0.05% DMSO). The exposure was done for 1, 24 or 48 hours.
(§4) Total RNA was isolated from fibroblasts using High Pure RNA Isolation Kit according to the protocol and then it was quantitatively evaluated using Quant-It™ RiboGreen® Assay Kit.
(§5) Biotinylated cRNA was prepared using Ambion Total PrepAmp Kit for Illumina arrays.
(§6) Standard hybridization and quantitative image analysis procedures—Illumina hybridization protocol and Illumina scanning protocol, were used.
(§7) Processing of the results was done during data definition, including: background correction (using background subtraction method), normalization (using quantile normalization algorithm with Illumina GenomeStudio software package: gene expression module version 1.9.0) and summarization (using method, which sums the values of signal intensities from a set of probes).

[2] = system: XYLT1; assay: DNA microarray, XYLT1 expression in fibroblasts exposed to genistein
Protocol: as §1, §2, §3, §4, §5, §6, §7

[3] = system: GNS; assay: DNA microarray, GNS expression in fibroblasts exposed to genistein; conditions: for GNS fold change Average: 48 h vs DMSO
Protocol: as §1, §2, §3, §4, §5, §6, §7

[4] = system: GBA; assay: DNA microarray, GBA expression in fibroblasts exposed to genistein; conditions: for GBA fold change Average: 48 h vs DMSO
Protocol: as §1, §2, §3, §4, §5, §6, §7

[5] = system: FUCA1; assay: DNA microarray, FUCA1 expression in fibroblasts exposed to genistein; conditions: for FUCA1 fold change Average: 48 h vs DMSO
Protocol: as §1, §2, §3, §4, §5, §6, §7

[6] = system: MANBA; assay: DNA microarray, MANBA expression in fibroblasts exposed to genistein; conditions: for MANBA fold change Average: 48 h vs DMSO
Protocol: as §1, §2, §3, §4, §5, §6, §7

[7] = system: NEU1; assay: DNA microarray, NEU1 expression in fibroblasts exposed to genistein; conditions: for NEU1 fold change Average: 48 h vs DMSO
Protocol: as §1, §2, §3, §4, §5, §6, §7

O=c1c(-c2ccc(O)cc2)coc2cc(O)cc(O)c12 [genistein, 4′,5,7-trihydroxy-3-phenylchromen-4-one]
CHST14 fold change Average 1h30/1hK1 ([1]; 30 μM, 1 h vs 0.05% DMSO): 1.007 fold change
CHST14 fold change Average 24h30/24hK1 ([1]; 30 μM, 24 h vs 0.05% DMSO): 0.8234 fold change
CHST14 fold change Average 48h30/48hK1 ([1]; 30 μM, 48 h vs 0.05% DMSO): 0.9217 fold change
CHST14 fold change Average 1h60/1hK1 ([1]; 60 μM, 1 h vs 0.05% DMSO): 0.851 fold change
CHST14 fold change Average 24h60/24hK1 ([1]; 60 μM, 24 h vs 0.05% DMSO): 0.8184 fold change
CHST14 fold change Average 48h61/48hK1 ([1]; 60 μM, 48 h vs 0.05% DMSO): 0.8526 fold change
CHST14 fold change Average 1h100/1hK1 ([1]; 100 μM, 1 h vs 0.05% DMSO): 1.06 fold change
CHST14 fold change Average 24h100/24hK1 ([1]; 100 μM, 24 h vs 0.05% DMSO): 0.8438 fold change
CHST14 fold change Average 48h100/48hK1 ([1]; 100 μM, 48 h vs 0.05% DMSO): 0.6534 fold change
XYLT1 fold change Average 1h30/1hK1 ([2]; 30 μM, 1 h vs 0.05% DMSO): 1.058 fold change
XYLT1 fold change Average 24h30/24hK1 ([2]; 30 μM, 24 h vs 0.05% DMSO): 0.8611 fold change
XYLT1 fold change Average 48h30/48hK1 ([2]; 30 μM, 48 h vs 0.05% DMSO): 0.9745 fold change
XYLT1 fold change Average 24h60/24hK1 ([2]; 60 μM, 24 h vs 0.05% DMSO): 0.6217 fold change
XYLT1 fold change Average 1h100/1hK1 ([2]; 100 μM, 1 h vs 0.05% DMSO): 1 fold change
XYLT1 fold change Average 24h100/24hK1 ([2]; 100 μM, 24 h vs 0.05% DMSO): 0.6324 fold change
XYLT1 fold change Average 48h100/48hK1 ([2]; 100 μM, 48 h vs 0.05% DMSO): 0.921 fold change
GNS fold change Average 1h30/1hK1 ([3]; 30 μM, 1 h vs 0.05% DMSO): 1.0062 fold change
GNS fold change Average ([3]; 30 μM): 1.2473 fold change
GNS fold change Average 1h60/1hK1 ([3]; 60 μM, 1 h vs 0.05% DMSO): 1.022 fold change
GNS fold change Average ([3]; 60 μM): 1.495 fold change
GNS fold change Average 1h100/1hK1 ([3]; 100 μM, 1 h vs 0.05% DMSO): 1.0219 fold change
GNS fold change Average ([3]; 100 μM): 1.418 fold change
GBA fold change Average 1h30/1hK1 ([4]; 30 μM, 1 h vs 0.05% DMSO): 0.9138 fold change
GBA fold change Average ([4]; 30 μM): 1.257 fold change
GBA fold change Average 1h60/1hK1 ([4]; 60 μM, 1 h vs 0.05% DMSO): 1.033 fold change
GBA fold change Average ([4]; 60 μM): 1.467 fold change
GBA fold change Average 1h100/1hK1 ([4]; 100 μM, 1 h vs 0.05% DMSO): 0.9469 fold change
GBA fold change Average ([4]; 100 μM): 1.606 fold change
FUCA1 fold change Average 1h30/1hK1 ([5]; 30 μM, 1 h vs 0.05% DMSO): 0.9984 fold change
FUCA1 fold change Average ([5]; 30 μM): 1.3114 fold change
FUCA1 fold change Average 1h60/1hK1 ([5]; 60 μM, 1 h vs 0.05% DMSO): 1.022 fold change
FUCA1 fold change Average ([5]; 60 μM): 1.558 fold change
FUCA1 fold change Average 1h100/1hK1 ([5]; 100 μM, 1 h vs 0.05% DMSO): 0.9945 fold change
FUCA1 fold change Average ([5]; 100 μM): 1.634 fold change
MANBA fold change Average 1h30/1hK1 ([6]; 30 μM, 1 h vs 0.05% DMSO): 1.0095 fold change
MANBA fold change Average ([6]; 30 μM): 1.6385 fold change
MANBA fold change Average 1h60/1hK1 ([6]; 60 μM, 1 h vs 0.05% DMSO): 1.041 fold change
MANBA fold change Average ([6]; 60 μM): 2.173 fold change
MANBA fold change Average 1h100/1hK1 ([6]; 100 μM, 1 h vs 0.05% DMSO): 0.9489 fold change
MANBA fold change Average ([6]; 100 μM): 2.387 fold change
NEU1 fold change Average 1h30/1hK1 ([7]; 30 μM, 1 h vs 0.05% DMSO): 1.2206 fold change
NEU1 fold change Average ([7]; 30 μM): 1.6536 fold change
NEU1 fold change Average 1h60/1hK1 ([7]; 60 μM, 1 h vs 0.05% DMSO): 1.323 fold change
NEU1 fold change Average ([7]; 60 μM): 2.259 fold change
NEU1 fold change Average 1h100/1hK1 ([7]; 100 μM, 1 h vs 0.05% DMSO): 1.353 fold change
